Read-outs that look alike come from different tables or passages of the source.

What is called Ki is the equilibrium dissociation constant of an inhibitor or competing ligand from its target. A high value points to a looser hold on the target.

Test [1] deals with KLK7.
In test [2] the target is KLK7. The source holds these as a separate data set.
Excerpt: Head of the field: Ki [nM]
In contrast to the first generation, they contain only two cysteines cyclized with one linker. The K values are shown as mean of three measurements ±SD.
First copying reader's note: The two cysteines are bridged by a drawn acetone (C=O) linker shown above the sequence columns; the Ki cells hold the value ± its error against KLK7.

In turn, P C L Y L S C P [compound 089] came in with a Ki in test [1] of 50 ± 5 nM.

Consider P C L Y L S R C S [compound 095], for which the Ki in test [2] turned out to be 90 ± 7 nM.

The substance P C L Y M A R C S [compound 111] registered a Ki in test [2] of 10 ± 1.3 nM.
